Entries after “also recorded” stand apart in the source; their conditions may differ.
Key:
Type in all cases: cell-based
DCIS.com cells [1] = assay: Cell cycle arrest in crowded DCIS.com cells; settings: crowded DCIS cells treated with TSA vs vehicle
From the text: FIGS. 11A-11D depict images and graphs illustrating independent possibilities for crowding-mediated increased invasiveness. […] FIGS. 11C-11D show images of DCIS.com cell invasiveness after treatment with vehicle or TSA (FIG. 11C) and the percentage of invasive cells per treatment group (FIG. 11D).
(§1) Also assessed were two independent possibilities for crowding-mediated increased invasiveness: YAP-association and cell cycle arrest (high-density cells are subject to G1 arrest).

DCIS.com cells [2] = assay: 2D hydrogel matrix-based invasion assay; settings: crowded DCIS.com cells treated with TSA vs vehicle
From the text: FIGS. 6A-6G depict images illustrating 2D hydrogel-based invasion assays. […] Percent (%) invading cells was calculating by dividing this value by the total number of spots. […] Scale bar=100 μm (FIGS. 6B-6E) and 10 μm (FIGS. 6F-6G).
To compare the invasive potential of live cells between different treatment groups, exemplary methods herein established a hydrogel matrix-based invasion assay (FIG. 6A). This assay was used to quantify the invasive cell fraction as a percentage of the total, based on fluorescence imaging results (FIGS. 6B-6E). Since cell stiffness is modulated by the stiffness of the surroundings [the values for normal breast versus DCIS cells are known to be ˜0.1 versus ˜10 kPa], the hydrogel matrix could be stiffness-controlled within the range specified above, as confirmed by nanoindenter measurements.
as §1

ATP1a1 = molecular target: T1, ATP1a1 (Homo sapiens, UniProt P05023); assay: Immunofluorescence imaging of plasma membrane ATP1A1 localization in overconfluent DCIS.com cells; settings: OC DCIS.com cells; 20 nM lithium bicarbonate or 100 nM ouabain, 24 hours; IF images
T1 construct: endogenous in cells; host or cells: MCF10DCIS.com (DCIS.com) cells, overconfluent
From the text: FIGS. 4A-4B depict images illustrating ion channel enrichment in DCIS plasma membranes. […] Transferrin receptor (TfR) distribution was insensitive to cell crowding. IF images. […] Scale bar=10 μm.
Crowding-induced cell volume changes typically occur under isotonic conditions and are accompanied by the efflux of intracellular osmolytes through ion channels. Methods herein assessed if ion channel activities were altered when cells are crowded.

SMILES	cell cycle arrest (DCIS.com cells [1])	invasiveness of DCIS.com cells (percentage of invasive cells) (DCIS.com cells [2])	PM ATP1a1 localization / PM abundance of ion channels (ATP1a1)
CC(/C=C/C(=O)NO)=C\[C@@H](C)C(=O)c1ccc(N(C)C)cc1 [Trichostatin A]	reversed the cell cycle arrest	did not decrease the invasiveness	
O=C([O-])O.[Li+] [lithium bicarbonate]			the perturbation was less obvious
C[C@@H]1O[C@@H](O[C@H]2C[C@@H](O)[C@]3(CO)[C@H]4[C@H](O)C[C@]5(C)[C@@H](C6=CC(=O)OC6)CC[C@]5(O)[C@@H]4CC[C@]3(O)C2)[C@H](O)[C@H](O)[C@H]1O [ouabain]			the PM abundance of ion channels was perturbed; also recorded: perturbed PM ATP1a1 localization

From patent US12013398B2, “Compositions and methods for treatment of invasive cancers” (The George Washington University, priority 2021, dated 2024)
